Where two headings read alike, the source gives them in different places.
Tests used:
HDAC3/SMRT heterodimer = biological target: T1, HDAC3/SMRT heterodimer (Homo sapiens, UniProt O15379); assay: HDAC3/SMRT inhibition, modified Fluor-de-Lys assay; type: biochemical; conditions: 3 h pre-incubation, 0.3 nM enzyme, 20 μM substrate BML-KI104, read-out: HDAC-3 IC50
T1 construct: FLAG (C)
Experimental: (§1) Human HDAC Enzyme Inhibitor FLUOR-DE-LYS Assay Materials
(§2) Recombinant human HDAC1, HDAC2, and HDAC3/SMRT heterodimer were prepared by Merck Research Laboratories. […] The eluted protein was then passed over an anti-HDAC1 immunoaffinity column to remove any complexes containing HDAC1. […]
(§3) The histone deacetylase activities of HDAC1, HDAC2, HDAC3, HDAC6, and HDAC8 were measured in modified Fluor-de-Lys assays in 384-well format. In this assay, HDAC enzymes are initially incubated with an ε-acetyl (or -trifluoroacetyl)-L-lysine-containing substrate with a C-terminal amide having aminomethylcoumarin as the amine component. HDACs cleave the ε-acetyl group, rendering the resulting product susceptible to AMC cleavage by trypsin. The released AMC is then detected by its fluorescence.
(§4) The HDAC 1, 2 assays employed buffer A, which contained 20 mM HEPES, pH 8.0, 1 mM MgCl2, 137 mM NaCl, 2.7 mM KCl, 0.05% BSA. The HDAC3/SMRT assay employed buffer B, consisting of 20 mM HEPES, pH 8.0, 1 mM MgCl2, 50 mM NaCl, 2.7 mM KCl, 0.05% BSA, 0.005% Tween 20, and 10 μM IP4. The HDAC6 assay employed buffer C, consisting of 20 mM HEPES, pH 8.0, 1 mM MgCl2, 137 mM NaCl, 2.7 mM KCl, 0.5 mM TCEP (Calbiochem) and 0.05% BSA. The HDAC8 assay employed buffer D, consisting of 20 mM HEPES, pH 8.0, 1 mM MgCl2, 100 mM NaCl, 20 mM KCl, 0.1% n-octyl-β-D-glucoside (Anatrace, Maumee, Ohio) and 0.05% BSA. All steps were performed at room temperature (23° C.). The assay was performed by pre-incubating serial dilutions of test compounds with the target HDAC prior to initiation with substrate. Each compound was titrated in a 10-point dose response, using a 1:3 fold dilution scheme, with 0.15 ul of solution added by ECHO555 to the plate, followed by the addition of 20 μl of the appropriate HDAC isoform diluted in appropriate assay buffer. […] Final conditions used for each assay were: 1. HDAC 1, 0.3 nM total enzyme, 20 μM substrate BML-KI104; 2. HDAC 2, 1.5 nM total enzyme, 40 μM substrate BML-KI104; 3. HDAC 3/SMRT, 0.3 nM total enzyme, 20 μM substrate BML-KI104; 4. HDAC 6, 1.3 nM total enzyme, 2.5 μM substrate BML-KI104; 5. HDAC 8, 1.3 nM total enzyme, 200 μM substrate BML-KI178; the final high dose of test compound was 30 μM. For potent compounds, 900 nM was used as the final high dose. The reactions were stopped and developed by addition of 30 ul of HDAC developer solution containing a saturating level of HDAC inhibitor as follows: 1.

KARN cells (Jurkat 2C4) = assay: KARN assay (luciferase induction); type: cell-based; conditions: Jurkat, ~20 hr, 100% induction = 2 μM SAHA
Experimental: KARN cells (Jurkat 2C4) were licensed from the laboratory of Dr. John Kam, Case Western Reserve University, School of Medicine. […] An atmosphere of 5% CO2 and 90% humidity was used for all culture work. Cells were split and reseeded into T175 flasks at a density of 0.2×10^6 cells/ml, in 40 ml of media, every 3-4 days.
Day 1: After the 3-4 day growth period, the cells were transferred from the T175 flask to a 50 ml conical tube and gently pelleted at 1000 rpm for 5 minutes. […] These flasks were returned to the incubator.
Day 2: Cell Preparation: The next day, the cells were transferred from each T175 flask to an individual 50 ml conical tube and gently pelleted at 1000 rpm for 5 minutes. The cells were gently resuspended in assay media (30 ml) and pelleted again. […] The cells were counted using the ViCell (Beckman Coulter, Brea, Calif.) and diluted as necessary. A Multidrop (Combi, Thermo Scientific, Waltham, Mass.) with a sterile head was used to seed the cells into the wells of a 384-well solid black plate with lid (Perkin Elmer, Waltham, Mass., catalog number 6007660) at 4000 cells/30 μl/well for the 5% NHS assay media and 6000 cells/30 μl/well for 0.1% NHS assay. The plates were covered and returned to the incubator prior to compound addition.
Compound Preparation: Solutions of control inhibitor suberoylanilide hydroxamic acid (SAHA; Sigma, catalog number SML0061) and test compounds in 100% DMSO were titrated into 384-well polypropylene plates (Labcyte, San Jose, Calif., catalog number P-05525) using a 20-point dose response and 2-fold dilutions. The reference compounds, DMSO and SAHA were then added to the compound plate. Using the Access system (Labcyte), 120 nl of these inhibitor and control solutions were added to the individual wells of the plates containing the cells, and the plates were then returned to the incubator for ˜20 hr (range from 18-24 hr). The final high concentration for SAHA and the test compounds in the assays was 40 μM. The final DMSO concentration in all wells was 0.4%. The minimal induction reference compound used was DMSO and the maximal induction reference compound used was SAHA (2 μM final concentration in the assay).
Day 3: The luciferase detection reagent was prepared by transferring the contents of one bottle of Steady-Glo buffer to one bottle of Steady-Glo substrate (Steady-Glo Luciferase Assay System, Promega, Madison, […]., catalog number E2520), followed by gently mixing until the substrate was thoroughly dissolved and the solution was equilibrated to room temperature. The cell culture assay plates were removed from the incubator and brought to room temperature (15 min). The Steady-Glo Reagent was added to the plates (30 μl/well), which were then covered with a black lid and incubated for 10 minutes at room temperature. The plates were then read for luminescence on an Envision (Perkin Elmer) using the ultrasensitive mode (US LUM), […] and 384-well aperture. Luminescence counts in the DMSO reference wells were considered as 0% induction, while those in the 2 μM SAHA reference wells were considered as 100% induction. Dose response curves were plotted as test compound concentration (X-axis) vs. percent activation (Y-axis) using a 4-parameter fit based on the Levenberg-Marquardt algorithm.

HDAC1 = biological target: T2, HDAC1 (Homo sapiens, UniProt Q13547); assay: HDAC1 inhibition, modified Fluor-de-Lys assay; type: biochemical; conditions: 3 h pre-incubation, 0.3 nM enzyme, 20 μM substrate BML-KI104; read-out: HDAC-1 IC50
T2 construct: FLAG (C)
Experimental: as §1, §2, §3, §4

HDAC2 = biological target: T3, HDAC2 (Homo sapiens, UniProt Q92769); assay: HDAC2 inhibition, modified Fluor-de-Lys assay; type: biochemical; conditions: 3 h pre-incubation, 40 μM substrate BML-KI104, read-out: HDAC-2 IC50
T3 construct: Full length human HDAC2-FLAG was expressed in baculovirus infected Sf9 cells; FLAG (C); host or cells: baculovirus infected Sf9 cells
Experimental: as §1, §2, §3, §4

[1] = read-out: Karn EC50 with 0.1% NHS, 0.1% normal human serum
[2] = read-out: Karn EC50 with 5% NHS, 5% normal human serum

T2 sequence (Q13547 whole entry): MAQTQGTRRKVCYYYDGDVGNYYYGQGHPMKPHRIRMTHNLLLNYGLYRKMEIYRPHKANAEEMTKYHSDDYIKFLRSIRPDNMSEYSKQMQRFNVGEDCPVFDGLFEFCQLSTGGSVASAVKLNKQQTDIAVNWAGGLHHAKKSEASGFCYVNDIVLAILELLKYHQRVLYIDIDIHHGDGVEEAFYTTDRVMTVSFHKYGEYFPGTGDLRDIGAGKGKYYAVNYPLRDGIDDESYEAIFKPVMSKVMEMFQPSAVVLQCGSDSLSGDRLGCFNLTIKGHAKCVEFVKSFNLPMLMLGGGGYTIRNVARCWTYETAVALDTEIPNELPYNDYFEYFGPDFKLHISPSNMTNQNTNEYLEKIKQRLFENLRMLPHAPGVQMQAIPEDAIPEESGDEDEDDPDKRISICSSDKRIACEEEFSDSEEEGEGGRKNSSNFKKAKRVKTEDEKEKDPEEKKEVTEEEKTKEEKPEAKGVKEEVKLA
T1 sequence (O15379 whole entry): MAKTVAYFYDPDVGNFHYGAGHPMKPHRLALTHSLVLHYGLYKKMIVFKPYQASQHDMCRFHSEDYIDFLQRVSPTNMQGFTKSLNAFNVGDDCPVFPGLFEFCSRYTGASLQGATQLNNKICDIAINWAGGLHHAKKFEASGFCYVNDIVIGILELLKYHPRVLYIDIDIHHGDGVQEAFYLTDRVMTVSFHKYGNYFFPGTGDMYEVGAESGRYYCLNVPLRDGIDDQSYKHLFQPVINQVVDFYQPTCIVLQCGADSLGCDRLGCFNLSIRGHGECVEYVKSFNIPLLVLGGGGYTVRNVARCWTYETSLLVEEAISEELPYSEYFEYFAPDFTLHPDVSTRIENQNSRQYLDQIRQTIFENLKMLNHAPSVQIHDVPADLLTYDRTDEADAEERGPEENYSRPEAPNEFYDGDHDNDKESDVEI
T1 sequence (Q9Y618 1-899 partner limits assumed): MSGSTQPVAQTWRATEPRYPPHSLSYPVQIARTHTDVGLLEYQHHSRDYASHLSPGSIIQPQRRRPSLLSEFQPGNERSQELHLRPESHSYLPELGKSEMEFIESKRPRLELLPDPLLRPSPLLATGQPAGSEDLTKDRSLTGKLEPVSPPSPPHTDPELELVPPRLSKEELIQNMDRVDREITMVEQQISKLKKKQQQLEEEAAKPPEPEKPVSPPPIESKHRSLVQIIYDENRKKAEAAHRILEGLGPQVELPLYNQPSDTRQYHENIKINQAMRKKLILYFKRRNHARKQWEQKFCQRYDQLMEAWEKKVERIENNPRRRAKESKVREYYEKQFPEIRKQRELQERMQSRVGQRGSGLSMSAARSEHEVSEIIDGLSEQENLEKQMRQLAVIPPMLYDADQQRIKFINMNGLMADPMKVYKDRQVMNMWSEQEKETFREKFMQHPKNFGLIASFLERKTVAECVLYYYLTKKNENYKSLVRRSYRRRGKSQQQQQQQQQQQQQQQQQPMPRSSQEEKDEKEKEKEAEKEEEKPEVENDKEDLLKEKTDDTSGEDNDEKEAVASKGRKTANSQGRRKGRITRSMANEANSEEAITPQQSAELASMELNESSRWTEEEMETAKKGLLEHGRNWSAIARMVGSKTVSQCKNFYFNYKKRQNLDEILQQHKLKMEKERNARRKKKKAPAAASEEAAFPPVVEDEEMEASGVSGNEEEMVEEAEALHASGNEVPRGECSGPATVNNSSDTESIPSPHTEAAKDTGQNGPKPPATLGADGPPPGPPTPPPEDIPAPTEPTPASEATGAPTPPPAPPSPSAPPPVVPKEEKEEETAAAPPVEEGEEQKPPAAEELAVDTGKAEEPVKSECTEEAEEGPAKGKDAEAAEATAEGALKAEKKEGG
T3 sequence (Q92769 whole entry): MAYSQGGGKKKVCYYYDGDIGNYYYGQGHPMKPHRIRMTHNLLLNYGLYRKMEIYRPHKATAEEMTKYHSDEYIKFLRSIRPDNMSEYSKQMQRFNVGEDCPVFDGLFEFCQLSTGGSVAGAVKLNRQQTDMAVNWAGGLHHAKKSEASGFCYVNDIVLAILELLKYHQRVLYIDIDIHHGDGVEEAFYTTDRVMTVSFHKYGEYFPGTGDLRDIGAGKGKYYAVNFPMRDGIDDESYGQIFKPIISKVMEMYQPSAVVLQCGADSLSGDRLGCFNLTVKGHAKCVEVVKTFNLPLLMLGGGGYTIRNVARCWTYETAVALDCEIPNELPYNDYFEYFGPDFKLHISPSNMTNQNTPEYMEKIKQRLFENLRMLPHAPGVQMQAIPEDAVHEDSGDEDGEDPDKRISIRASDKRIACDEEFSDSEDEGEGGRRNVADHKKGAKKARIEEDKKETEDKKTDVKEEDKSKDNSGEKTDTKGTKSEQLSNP

| SMILES | IC50 (HDAC3/SMRT heterodimer) [nM] | EC50 (KARN cells (Jurkat 2C4); [1]) [µM] | EC50 (KARN cells (Jurkat 2C4); [2]) [µM] | IC50 (HDAC1) [nM] | IC50 (HDAC2; 1.5 nM enzyme) [nM] | IC50 (HDAC2; […] enzyme) [nM] |
| --- | --- | --- | --- | --- | --- | --- |
| CCC(=O)CCCCC[C@@H]1NC(=O)[C@H]2CC23CCN(C/C=C/CN2C4CCC2c2cc(ccc24)-c2cnc1[nH]2)CC3 (stereo partly drawn) [Compound 3, (1^1S,4S,E)-4-(6-oxooctyl)-6^1,6^2,6^3,6^4-tetrahydro-5^1H-3-aza-6(6,9)-1,4-epiminonaphthalena-11(4,1)-piperidina-5(2,5)-imidazola-1(1,2)-cyclopropanaundecaphan-8-en-2-one] | 0.86 | 0.073 | 0.076 | 2.7 | 7 |  |
| CCC(=O)CCCCC[C@@H]1NC(=O)[C@H]2CC23CCN(CCCOCCn2ccc4cc(ccc4c2=O)-c2cnc1[nH]2)CC3 [Compound 11, (3S,6S)-6-(6-oxooctyl)-21-oxa-5,8,18,25,32-pentaazahexacyclo[23.2.2.1˜7,10˜0.1˜11,15˜0.1˜14,18˜0.0˜1,3˜] dotriaconta-7,9,11(31),12,14,16-hexaene-4,30-dione] | 2.6 | > 40 | > 40 | 0.11 |  | 22 |
| CCC(=O)CCCCC[C@@H]1NC(=O)[C@H]2CC23CCN(CCCCCOc2ccc4cc(ccc4n2)-c2cnc1o2)CC3 [Compound 9] | 150 | > 40 | > 40 | 24 |  | 335 |
| CCC(=O)CCCCC[C@H](NC(=O)[C@H]1CC12CCN(CC)CC2)c1[nH]c2nc1C(=O)NCCCCCc1cccc-2c1 [Compound 13, (S)-6-ethyl-N-((S)-7-oxo-1-((Z)-9-oxo-11H-8-aza-1(2,4)-imidazola-2(1,3)-benzenacyclononaphane-15-yl)nonyl)-6-azaspiro[2.5]octane-1-carboxamide] | 103 | > 40 | 12 | 109 |  |  |
| CCC(=O)CCCCC[C@@H]1NC(=O)CN(C)CCCCOCCCCn2ccc3cc(ccc3c2=O)-c2cnc1[nH]2 [Compound 6, (3S)-7-methyl-3-(6-oxooctyl)-11,12-dihydro-21H-12-oxa-4,7-diaza-1(6,2)-isoquinolina-2(5,2)-imidazolacyclohexadecaphane-11,5-dione] | 248 | 2.5 | 3.51 | 28 |  | 595 |
| CCC(=O)CCCCC[C@@H]1NC(=O)[C@H]2CC23CCN(CCOCCn2ccc4cc(ccc4c2=O)-c2cnc1[nH]2)CC3 [Compound 4, (1^1S,4S)-4-(6-oxooctyl)-6^1,6^2-dihydro-5^1H-9-oxa-3-aza-6(6,2)-isoquinolina-12(4,1)-piperidina-5(2,5)-imidazola-1(1,2)-cyclopropanadodecaphane-6^1,2-dione] | 7.1 | > 40 | > 40 | 0.61 |  | 35 |
| CCC(=O)CCCCC[C@@H]1NC(=O)[C@H]2CC23CCN(CCCCN2C4CCC2c2cc(ccc24)-c2cnc1[nH]2)CC3 (stereo partly drawn) [Compound 10, (3S,6S)-6-(6-oxooctyl)-5,8,20,25,31-pentaazaheptacyclo[23.2.2.1˜7,10˜.1˜11,15˜.0˜1,3˜.0˜14,19˜0.0˜16,20˜]hentriaconta-7,9,11(30),12,14-pentaen-4-one] | 49 | 0.844 | 0.867 | 19 | 148 |  |
| CCC(=O)CCCCC[C@@H]1NC(=O)[C@H]2CC23CCN(CCCCCCCCn2ccc4cc(ccc4c2=O)-c2cnc1[nH]2)CC3 [Compound 1, (3S,6S)-6-(6-oxooctyl)-5,8,18,27,34-pentaazahexacyclo[25.2.2.1˜7,10˜.1˜11,15˜.1˜14,18˜.0˜1,3˜]tetratriaconta-7,9,11(33),12,14,16-hexaene-4,32-dione] | 0.061 | 0.014 | 0.016 | 0.2 |  | 0.43 |
| CCC(=O)CCCCC[C@@H]1NC(=O)[C@H]2CC23CCN(CCCCN2C4CCC2c2c(cccc24)-c2cnc1[nH]2)CC3 (stereo partly drawn) [Compound 2, (11S,4S)-4-(6-oxooctyl)-61,62,63,64-tetrahydro-51H-3-aza-6(5,9)-1,4-epiminonaphthalena-11(4,1)-piperidina-5(2,5)-imidazola-1(1,2)-cyclopropanaundecaphan-2-one] | 24 | 6.27 | 9.06 | 45 | 176 |  |
